Results as given in patent US11827628B2, “Compositions and methods for inhibition of the JAK pathway” (Rigel Pharmaceuticals, Inc., priority 2005, dated 2023).
Counter-ions that a name gives are not always drawn.

test system: up-regulation of ICAM-1 (CD54) by IFNγ in U937 human monocytic cells; test: U937 IFNγ ICAM1 FACS Assay; assay type: cell-based; settings: Homo sapiens, U-937, U937 cells stimulated with IFNγ, ICAM-1 expression by FACS; read-out: IC50, Example 44
Procedure, shortened: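 Readout was the geometric-mean APC anti-ICAM-1 signal by FACS on live U937 monocytic cells, with % live cells also recorded. Cells were exposed to compounds (8 points, 3-fold dilutions, duplicates) for 30 min at 37 °C before 18–24 h of IFNγ stimulation. EC50 values were computed from the dose curve.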

| IC50 [µM] | Structure (SMILES) |
| --- | --- |
| 0.424 | COc1ccc(Nc2ncc(F)c(Nc3ccc(OCC#N)cc3)n2)cc1S(N)(=O)=O [Compound I-56, N2-(3-Aminosulfonyl-4-methoxyphenyl)-N4-(4-cyanomethoxyphenyl)-5-fluoro-2,4-pyrimidinediamine] |
| 1.08 | Cc1cc(COc2ccc(Nc3nc(Nc4cccc(S(=O)(=O)NCc5oc(=O)oc5C)c4)ncc3F)cc2)no1 [Compound I-247, N2-{3-[(N-5-Methyl-1,3-dioxolene-2-one-4-yl)methylene]aminosulfonylphenyl}-5-fluoro-N4-[4-(5-methylisoxazol-3-yl)methyleneoxyphenyl]-2,4-pyrimidinediamine] |
| 10.5 | CNC(=O)COc1ccc(Nc2nc(Nc3cccc(S(N)(=O)=O)c3)ncc2C)cc1Cl [Compound I-150, N2-(3-Aminosulfonylphenyl)-N4-(3-chloro-4-methylaminocarbonylmethoxyphenyl)-5-methyl-2,4-pyrimidinediamine] |
| 1.38 | Cc1cc2ccc(CNc3nc(Nc4cccc(S(N)(=O)=O)c4)ncc3F)cc2[nH]1 [Compound X-3] |
| 1.38 | C=CCNC(=O)COc1ccc(Nc2nc(Nc3cccc(S(N)(=O)=O)c3)ncc2F)cc1 [Compound I-158, N4-(4-Allylaminocarbonylmethoxyphenyl)-N2-(3-aminosulfonylphenyl)-5-fluoro-2,4-pyrimidinediamine] |
| 0.444 | N#CCCc1ccc(Nc2nc(Nc3cccc(S(N)(=O)=O)c3)ncc2F)cc1Cl [III-22, N2-(3-Aminosulfonylphenyl)-N4-[3-chloro-4-(2-cyanoethyl)phenyl]-5-fluoro-2,4-pyrimidinediamine] |
| 0.321 | Cc1cnc(Nc2ccc(Cl)c(S(N)(=O)=O)c2)nc1Nc1ccc(CCC#N)cc1 [III-12, N2-(3-Aminosulfonyl-4-chlorophenyl)-N4-[4-(2-cyanoethyl)phenyl]-5-methyl-2,4-pyrimidinediamine] |
| 0.544 | N#CCCc1ccc(Nc2nc(Nc3cccc(S(N)(=O)=O)c3)ncc2F)cc1F [III-18, N2-(3-Aminosulfonylphenyl)-N4-[4-(2-cyanoethyl)-3-fluorophenyl]-5-fluoro-2,4-pyrimidinediamine] |
| 2.04 | Cc1ccc(Nc2ncc(F)c(NCCc3ccc(-n4ccnc4)cc3)n2)cc1S(N)(=O)=O [III-88, N2-(3-Aminosulfonyl-4-methylphenyl)-5-fluoro-N4-[4-(1-imidazolyl)phenethyl]-2,4-pyrimidinediamine] |
| 1.63 | C=CCNC(=O)COc1ccc(Nc2nc(Nc3ccc(C)c(S(N)(=O)=O)c3)ncc2F)cc1 [Compound I-159, N4-(4-Allylaminocarbonylmethoxyphenyl)-N2-(3-aminosulfonyl-4-methylphenyl)-5-fluoro-2,4-pyrimidinediamine] |
| 15.6 | Cc1ccc(Nc2ncc(F)c(Nc3ccc(OCC(N)=O)c(F)c3)n2)cc1S(N)(=O)=O [Compound I-102, N4-(4-Aminocarbonylmethoxy-3-fluorophenyl)-N2-(3-aminosulfonyl-4-methylphenyl)-5-fluoro-2,4-pyrimidinediamine] |
| 0.759 | COc1cc(Nc2nc(Nc3ccc(C)c(S(N)(=O)=O)c3)ncc2F)ccc1OCC#N [Compound I-47, N2-(3-Aminosulfonyl-4-methylphenyl)-N4-(4-cyanomethoxy-3-methoxyphenyl)-5-fluoro-2,4-pyrimidinediamine] |
| 0.118 | Cc1ccc(Nc2ncc(F)c(Nc3ccc(OCc4cccnc4)cc3)n2)cc1S(N)(=O)=O [Compound I-178, N2-(3-Aminosulfonyl-4-methylphenyl)-5-fluoro-N4-[4-(3-pyridylmethoxy)phenyl]-2,4-pyrimidinediamine] |
| 4.59 | Cc1ccc(Nc2ncc(F)c(Nc3cccc(OC4CCN(C)CC4)c3)n2)cc1S(N)(=O)=O [II-2, N2-(3-Aminosulfonyl-4-methylphenyl)-5-fluoro-N4-{3-[(1-methylpiperidin-4-yl)oxy]phenyl}-2,4-pyrimidinediamine] |
| 0.447 | NS(=O)(=O)c1cccc(Nc2ncc(F)c(NCCc3ccc(-c4ccncc4)cc3)n2)c1 [III-76, N2-(3-Aminosulfonylphenyl)-5-fluoro-N4-[4-(4-pyridinyl)phenethyl]-2,4-pyrimidinediamine] |
| 1.7 | NS(=O)(=O)c1ccc(Nc2ncc(F)c(Nc3ccc(Cc4ccncc4)cc3)n2)cc1 [III-71, N2-(4-Aminosulfonylphenyl)-5-fluoro-N4-[4-(4-pyridinylmethyl)phenyl]-2,4-pyrimidinediamine] |
| 2.62 | CNC(=O)COc1ccc(Nc2nc(Nc3ccc(C)c(S(N)(=O)=O)c3)ncc2C)cc1F [Compound I-156, N2-(3-Aminosulfonyl-4-methylphenyl)-N4-(3-fluoro-4-methylaminocarbonylmethoxyphenyl)-5-methyl-2,4-pyrimidinediamine] |
| 1.19 | Cc1ccc(Nc2ncc(F)c(Nc3ccc(Oc4cccnc4)cc3)n2)cc1S(N)(=O)=O [II-12, N2-(3-Aminosulfonyl-4-methylphenyl)-5-fluoro-N4-[4-(3-pyridyloxy)phenyl]-2,4-pyrimidinediamine] |
| 3.64 | COc1cc(Nc2nc(Nc3ccc(S(N)(=O)=O)cc3)ncc2F)ccc1OCC#N [Compound I-45, N2-(4-Aminosulfonylphenyl)-N4-(4-cyanomethoxy-3-methoxyphenyl)-5-fluoro-2,4-pyrimidinediamine] |
| 3.24 | Cc1cnc(Nc2ccc(S(N)(=O)=O)cc2)nc1Nc1ccc(OCC(=O)N(C)C)c(Cl)c1 [Compound I-134, N2-(4-Aminosulfonylphenyl)-N4-(3-chloro-4-dimethylaminocarbonylmethoxyphenyl)-5-methyl-2,4-pyrimidinediamine] |
| 0.751 | COc1cc(Nc2nc(Nc3cccc(S(N)(=O)=O)c3)ncc2F)ccc1OCC#N [Compound I-46, N2-(3-Aminosulfonylphenyl)-N4-(4-cyanomethoxy-3-methoxyphenyl)-5-fluoro-2,4-pyrimidinediamine] |
| 68.7 | N#CCOc1ccc(Nc2nc(Nc3ccc(S(N)(=O)=O)cc3)ncc2F)cc1-c1ccn(CC#N)n1 [Compound I-52, N2-(4-Aminosulfonylphenyl)-N4-[4-cyanomethoxy-3-(1-cyanomethylpyrazol-3-yl)phenyl]-5-fluoro-2,4-pyrimidinediamine] |
| 1.63 | Cc1ccc(Nc2ncc(F)c(Nc3ccc(OC4CCN(C)CC4)cc3)n2)cc1S(N)(=O)=O [II-7, N2-(3-Aminosulfonyl-4-methylphenyl)-5-fluoro-N4-{4-[(1-methylpiperidin-4-yl)oxy]phenyl}-2,4-pyrimidinediamine] |
| 2.99 | CN(C)C(=O)COc1ccc(Nc2nc(Nc3ccc(S(N)(=O)=O)cc3)ncc2F)cc1Cl [Compound I-131, N2-(4-Aminosulfonylphenyl)-N4-(3-chloro-4-dimethylaminocarbonylmethoxyphenyl)-5-fluoro-2,4-pyrimidinediamine] |
| 0.465 | Cc1cc(COc2ccc(Nc3nc(Nc4cccc(S(N)(=O)=O)c4)ncc3F)cc2)no1 [Compound I-230, N2-(3-Aminosulfonylphenyl)-5-fluoro-N4-[4-(5-methylisoxazol-3-yl)methyleneoxyphenyl]-2,4-pyrimidinediamine] |
| 6.39 | Cc1ccc(Nc2ncc(F)c(Nc3ccc(OC4CCN(C)CC4)c(C(F)(F)F)c3)n2)cc1S(N)(=O)=O [II-6, N2-(3-Aminosulfonyl-4-methylphenyl)-5-fluoro-N4-{4-[(1-methylpiperidin-4-yl)oxy]-3-trifluoromethylphenyl}-2,4-pyrimidinediamine] |
| 36.6 | NC(=O)COc1ccc(Nc2nc(Nc3cccc(S(N)(=O)=O)c3)ncc2F)cc1F [Compound I-101, N4-(4-Aminocarbonylmethoxy-3-fluorophenyl)-N2-(3-aminosulfonylphenyl)-5-fluoro-2,4-pyrimidinediamine] |

same assay, conditions: U937 cells stimulated with IFNγ; ICAM-1 expression by FACS; read-out: IC50, Example 44

| IC50 [µM] | Structure (SMILES) |
| --- | --- |
| 1.91 | NS(=O)(=O)c1cccc(Nc2ncc(F)c(Nc3ccc(Cn4cncn4)cc3)n2)c1 [III-100, N2-(3-Aminosulfonylphenyl)-5-fluoro-N4-{4-[1-(1,2,4-thazolyl)methyl]phenyl}-2,4-pyrimidinediamine] |
| 14.5 | COc1ccc(Nc2nc(Nc3cccc(S(=O)(=O)NN4CCC(C)CC4)c3)ncc2F)cc1Cl [VI-9, N4-(3-Chloro-4-methoxyphenyl)-5-fluoro-N2-[3-(4-methylpipendin-1-yl)aminosulfonylphenyl]-2,4-pyrimidinediamine] |
| 2.43 | NS(=O)(=O)c1cccc(Nc2ncc(F)c(Nc3ccc(CN4CCOCC4)cc3)n2)c1 [III-103, N2-(3-Aminosulfonylphenyl)-5-fluoro-N4-(4-N-morpholinomethylenephenyl)-2,4-pyrimidinediamine] |
| 6.85 | Cc1ccc(Nc2ncc(F)c(Nc3cnc4c(c3)OC(C)(C)C(=O)N4CC#N)n2)cc1S(N)(=O)=O [Compound V-14, N2-(3-Aminosulfonyl-4-methylphenyl)-N4-[2,2-dimethyl-3-oxo-4-cyanomethyl-5-pyrid[1,4]oxazin-7-yl]-5-fluoro-2,4-pyrimidinediamine] |
| 2.16 | Cc1ccc(Nc2ncc(F)c(Nc3ccc(CN4CCOCC4)cc3)n2)cc1S(N)(=O)=O [III-104, N2-(3-Aminosulfonyl-4-methylphenyl)-5-fluoro-N4-(4-N-morpholinomethylenephenyl)-2,4-pyrimidinediamine] |
| 1.19 | NS(=O)(=O)c1cccc(Nc2ncc(F)c(Nc3ccc(Cc4ccncc4)cc3)n2)c1 [III-129, N2-(3-Aminosulfonylphenyl)-5-fluoro-N4-[4-(4-pyridylmethyl)phenyl]-2,4-pyrimidinediamine Methanesulfonic Acid Salt] |
| 2.42 | CNS(=O)(=O)c1cc(Nc2ncc(F)c(Nc3cccc(-c4cnco4)c3)n2)ccc1C [IV-4, 5-Fluoro-N2-[3-(N-methylaminosulfony)-4-methylphenyl]-N4-[3-(1,3-oxazol-5-yl)phenyl]-2,4-pyrimidinediamine] |
